Test results as given in the supplement of paper PMC11061612.

How the values were obtained:
Experiment in all cases: Bliss excess, mean over the matrix (fraction); higher = more synergy
[1] = test system: ONS-76 (Other Solid Carcinomas)
Summary of the method: (§1)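 After 24 hours at 37°C and 5% CO2 in 1536-well plates, cells in DMEM/F12 or RPMI plus 10% FBS received two-drug dose matrices for 72 hours. Viability came from CellTiter-Glo 2.0 luminescence and was scaled as inhibition, anchored at 0 by vehicle wells and at 1 by blank wells. Combination Emax is taken as the second-highest inhibition in the matrix, and Bliss excess as the observed combination effect less EA + EB − EA·EB, with EA and EB the single-agent effects.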

U-2-OS (Osteosarcoma) = test system: U-2-OS (Osteosarcoma)
Summary of the method: as §1

[2] = test system: MDST8 (Colorectal Carcinoma)
Summary of the method: as §1

[3] = test system: KARPAS-422 (B-Cell Non-Hodgkin's Lymphoma)
Summary of the method: as §1

[4] = test system: BICR22 (Oral Cavity Carcinoma)
Summary of the method: as §1

[5] = test system: NCI-H2141 (Small Cell Lung Carcinoma)
Summary of the method: as §1

[6] = test system: SK-MG-1 (Low Grade Glioma)
Summary of the method: as §1

[7] = test system: OS-RC-2 (Kidney Carcinoma)
Summary of the method: as §1

CAS-1 (Glioblastoma) = test system: CAS-1 (Glioblastoma)
Summary of the method: as §1

[8] = test system: A549 (Lung Adenocarcinoma)
Summary of the method: as §1

[9] = test system: NCI-H1693 (Lung Adenocarcinoma)
Summary of the method: as §1

[10] = test system: TT2609-C02 (Thyroid Gland Carcinoma)
Summary of the method: as §1

[11] = test system: ECC10 (Gastric Carcinoma)
Summary of the method: as §1

[12] = test system: SISO (Cervical Carcinoma)
Summary of the method: as §1

Hs-445 (Non-Cancerous) = test system: Hs-445 (Non-Cancerous)
Summary of the method: as §1

NCI-H2591 (Mesothelioma) = test system: NCI-H2591 (Mesothelioma)
Summary of the method: as §1

PA-1 (Ovarian Carcinoma) = test system: PA-1 (Ovarian Carcinoma)
Summary of the method: as §1

[13] = test system: CCK-81 (Colorectal Carcinoma)
Summary of the method: as §1

[14] = test system: COLO-320-HSR (Colorectal Carcinoma)
Summary of the method: as §1

FU97 (Gastric Carcinoma) = test system: FU97 (Gastric Carcinoma)
Summary of the method: as §1

SMILES	Bliss excess [1]	Bliss excess (U-2-OS (Osteosarcoma))	Bliss excess [2]	Bliss excess [3]	Bliss excess [4]	Bliss excess [5]	Bliss excess [6]	Bliss excess [7]	Bliss excess (CAS-1 (Glioblastoma))	Bliss excess [8]	Bliss excess [9]	Bliss excess [10]	Bliss excess [11]	Bliss excess [12]	Bliss excess (Hs-445 (Non-Cancerous))	Bliss excess (NCI-H2591 (Mesothelioma))	Bliss excess (PA-1 (Ovarian Carcinoma))	Bliss excess [13]	Bliss excess [14]	Bliss excess (FU97 (Gastric Carcinoma))
CN(C)CCCOc1ccc(-c2ccc3ncc4c(c3c2)n(C2CCOCC2)c(=O)n4C)cn1 [AZD0156] + CCN(CCO)CCCOc1ccc2c(Nc3cc(CC(=O)Nc4cccc(F)c4)[nH]n3)ncnc2c1 [AZD2811] (first compound max 1 µM, 7x7, partner max 1 µM)	-0.0169	-0.0148	0.0279	0.0004	0.0091	-0.0327	0.0212	-0.0312	0.0191	-0.0431	-0.0274	-0.0032	-0.0028	0.0081	0.045	-0.0204	0.038	-0.0302	-0.0278	-0.0947
CN(CCO)CC[C@H](CSc1ccccc1)Nc1ccc(S(=O)(=O)NC(=O)c2ccc(N3CCC([C@@H](O)c4ccccc4-c4ccc(Cl)cc4)CC3)cc2)cc1S(=O)(=O)C(F)(F)F [AZD4320] + CCN(CCO)CCCOc1ccc2c(Nc3cc(CC(=O)Nc4cccc(F)c4)[nH]n3)ncnc2c1 [AZD2811] (first compound max 1 µM, 7x7, partner max 1 µM)	0.0817	0.0076	0.0868	0.14	0.0119	0.0443	0.0981	-0.0659	0.0208	-0.149	-0.003	0.0411	0.0193	0.0049	0.175	0.0015	0.0664	-0.0345	-0.0087	-0.0531
Cn1cnc2c(F)c(Nc3ccc(Br)cc3Cl)c(C(=O)NOCCO)cc21 [Selumetinib] + C[C@@H]1COCCN1C2=NC(=NC(=C2)C3(CC3)[S@](=N)(=O)C)C4=C5C=CNC5=NC=C4 [AZD6738] (first compound max 10 µM, 7x7, partner max 10 µM)	-0.0914	-0.0443	0.042	-0.0396	-0.0834	-0.0666	0.0158	-0.0455	-0.0163	-0.0173	-0.0017	0.0773	0.0198	-0.0241	-0.0473	0.0292	0.0267	0.0233	-0.0678	0.0267
C[C@@H](c1ccc2nccn2c1)n1nnc2ncc(-c3cnn(C)c3)nc21 [Savolitinib] + CC1(C)CCC(CN2CCN(c3ccc(C(=O)NS(=O)(=O)c4ccc(NCC5CCOCC5)c([N+](=O)[O-])c4)c(Oc4cnc5[nH]ccc5c4)c3)CC2)=C(c2ccc(Cl)cc2)C1 [Venetoclax] (first compound max 1 µM, 7x7, partner max 1 µM)	-0.0468	-0.0397	-0.0546	-0.0282	-0.0353	-0.108	-0.0549	-0.0854	-0.055	-0.0378	-0.0639	-0.1	0.0258	-0.0438	-0.0642	-0.0802	-0.0163	-0.0615	-0.0223	-0.0344
CCc1c2c(nc3ccc(O)cc13)-c1cc3c(c(=O)n1C2)COC(=O)[C@]3(O)CC [SN-38] + CN(C)CCCOc1ccc(-c2ccc3ncc4c(c3c2)n(C2CCOCC2)c(=O)n4C)cn1 [AZD0156] (first compound max 0.3 µM, 7x7, partner max 1 µM)	0.0091	-0.0193	0.0171	-0.0862	0.0243	0.0219	0.23	-0.0022	-0.0101	0.0128	-0.0099	0.0068	-0.143	0.0978	-0.018	-0.0118	0.0713	0.135	0.0243	-0.0484
CC1(C)CCC(CN2CCN(c3ccc(C(=O)NS(=O)(=O)c4ccc(NCC5CCOCC5)c([N+](=O)[O-])c4)c(Oc4cnc5[nH]ccc5c4)c3)CC2)=C(c2ccc(Cl)cc2)C1 [Venetoclax] + CN(C)CCCOc1ccc(-c2ccc3ncc4c(c3c2)n(C2CCOCC2)c(=O)n4C)cn1 [AZD0156] (first compound max 1 µM, 7x7, partner max 1 µM)	-0.054	-0.0107	-0.038	0.0398	-0.0381	-0.0183	-0.0527	-0.0456	-0.0046	-0.0586	-0.0123	-0.0351	0.0243	0.0004	-0.035	-0.0202	0.0367	-0.0054	0.0114	-0.0293
Cc1cc2ncnn2cc1Nc1ncc2c(n1)n(C1CCOCC1)c(=O)n2C [AZD7648] + C[C@@H]1COCCN1C2=NC(=NC(=C2)C3(CC3)[S@](=N)(=O)C)C4=C5C=CNC5=NC=C4 [AZD6738] (first compound max 10 µM, 7x7, partner max 10 µM)	-0.0282	0.0173	-0.0085	-0.0856	0.0114	0.0088	0.0011	-0.0077	0.0024	-0.0282	0.0177	-0.0004	0.0582	0.0202	0.001	0.04	-0.0509	0.0178	-0.0398	-0.0017
